Laboratory results published in patent US20160193240A1, “Ulmoside-A: Useful For Prevention Or Cure Of Metabolic Diseases” (COUNCIL OF SCIENTIFIC & INDUSTRIAL RESEARCH, priority 2013, published 2016).

Tests used:
[1] = tested on: C2C12 myotubes; test: Fatty acid oxidation (14CO2 release from 14C palmitate) in C2C12 myotubes; assay type: cell-based, mouse; settings: 10 nM
Procedure: B. ULMA enhances fatty acid oxidation in C2C12 myotubes. C2C12 myotubes plated in 12 well plates were treated with vehicle (0.1% vol/vol DMSO) or 10 nM ULMA in DMSO (final concentration of DMSO in all wells 0.1% for 2 h, 24 h or 48 h. Data represent mean±SEM of three independent experiments performed in triplicates. Following treatment, ^14CO2 release from these cells was measured and plotted. *p<0.05, **p<0.01, ***p<0.001 as determined by two tailed unpaired student's t-test.
D. siAdipoR1 eliminates ULMA induction of fatty acid oxidation. C2C12 myotubes were transfected with nonsilencing siC or siAdipoR1. 72 h after transfection, cells were treated for 24 h with 10 nM ULMA and fatty acid oxidation experiments were performed. Data is mean±SEM of three independent experiments performed in triplicates. **p<0.01 as determined by two tailed unpaired student's t-test.
Adiponectin is known to enhance glucose uptake and fatty acid oxidation in skeletal muscle and myotubes (T. Kadowaki, T. Yamauchi, N. Kubota, K. Hara, K. Ueki, K. Tobe. J Clin Invest. 116(7): 1784-1792. 2006; T. Yamauchi, J. Kamon, Y. Ito, A. Tsuchida, T. Yokomizok, S. Kita, T. Sugiyama, M. Miyagishi, K. Hara, M. Tsunodaq, K. Murakamiq, T. Ohteki, S. Uchida, S. Takekawa, H. Waki, N. H. Tsuno, Y. Shibata, Y. Terauchi, P. Froguel, K. Tobe, S. Koyasu, K. Taira, T. Kitamura, T. Shimizuk, R. Nagai, T. Kadowaki. Nature. 423(6941):762-769. 2003). […] Subsequently, the cells were lysed in 100 μl 0.5N NaOH and 5 μl lysate was used for protein concentration determination, and rest of the lysate was used to measure cellular radioactivity in a beta-counter (Beckman Coulter). […] Radioactivity that had become adsorbed onto the filter discs was then quantified by liquid scintillation counting in a beta-counter (Beckman Coulter). The cells were lysed with 200 μl 0.5N NaOH and 5 μl of the lysate was used for protein estimation using Bradford assay and the radioactivity was normalized with the protein content.

[2] = tested on: db/db mice; test: Random (fed) blood glucose in db/db mice; assay type: in vivo, mouse; settings: 5 mg/kg ULMA for 15 d
Procedure: 8 week old db/db mice were treated with vehicle (V; 1% gum acacia) or with 5 mg/kg ULMA for 15 days and the fed blood glucose was measured by a glucometer (Gluco Dr. Super sensor; that is capable of measuring 10-900 mg/dl glucose) ** p<0.01, ***p<0.005, n=6.
8 week old female db/db mice (n=6) weighing 40-50 g were divided into 2 groups and maintained as above. Control groups received vehicle (1% gum acacia) and ULMA groups received 5 mg/kg bw ULMA in 1% gum acacia for […]. Body weight and blood glucose were measured at the beginning and end of the studies.

[3] = tested on: Human SVF; test: Brown adipose marker protein level in human stromal vascular fractions; assay type: cell-based; settings: differentiated in presence of ULMA, 21 d
Procedure: C. Cells from identical set of experiments as described in FIGS. 5A and 5B or human SVFs prepared by collagenase digestions were analyzed by western blot analysis for determination of UCP-1, UCP-2 and PGC-1α protein level. Beta-actin was used as a loading control. Data is representative of three independent experiments.
Mouse stromal vascular fractions (SVF) from epididymal fat pad were prepared using standard collagenase digestion method. Human SVF was prepared from human lipoaspirates (subcutaneous) collected from an obese individual undergoing liposuction following approval of Institutional Ethical Committee. To isolate SVFs, epidymal fat pads tissue or lipoaspirates were washed 6× in PBS and then were dispensed in tissue culture flasks. 0.2% sterile collagenase (Sigma) solution containing 1× antibiotic-antimycotic (Invitrogen) was then added to the adipose and the flasks were shaken vigorously for 10 seconds. The flasks were then incubated at 37° C. on a shaker for 2 hours with manual shaking of the flasks for 5-10 seconds every 15 min. After completion of digestion, FBS was added to the final concentration of 10% to the flasks, mixed and the collagenase digested tissue were then dispensed in 50 ml conical tubes and were centrifuged at 400 g for 10 min at room temp. […]

O=C1c2c(cc(O)c([C@@H]3O[C@H](CO)[C@@H](O)[C@H](O)[C@H]3O)c2O)O[C@@H](c2ccc(O)c(O)c2)[C@@H]1O [ULMA, (2S,3S)-(+)-3′,4′,5,7-tetrahydroxydihydroflavonol-6-C-β-D-glucopyranoside]
time of treatment at which induction of fatty acid oxidation was visible [1]: ≤ 2 h
fatty acid oxidation ([1]; 2 h, 24 h or 48 h, increased with time): robustly induced
ULMA-induced fatty acid oxidation with siAdipoR1 (not siC) ([1]; 24 h, 72 h after siRNA transfection): completely eliminated
fed blood glucose in comparison to vehicle treated control mice [2]: significantly reduced fed blood glucose
PGC-1α protein level [3]: elevated
UCPs protein level [3]: elevated
